The text below walks through data of patent US7741244B2, “Fungicide compositions” (priority 2002, dated 2010).

Test [1] deals with White mold. Nature of the test: PDA plate inhibition, caprylic acid and organic acids (Example 13). It is filed as cell-based. Particulars: PDA plates.
Test [2] relates to Botrytis cinerea. The description is as above. It is filed as cell-based. Conditions: PDA plates.
The subject of test [3] is Botrytis cinerea. Nature of the test: Inhibition of fungal infections on fresh raspberries (Example 9). In kind it is in vivo. Conditions: raspberries (Heritage), 60 s dip.
The test system of test [4] is Septoria. Particulars: PDA plates, control plate = 100%.
The test system of test [5] is Late blight. It is filed as cell-based. Particulars: PDA plates; day 2 after inoculum; control plate = 100%.

Take `O=C(O)CC(O)(CC(=O)O)C(=O)O` [0.010% citric acid, citric acid]: in test [1], the “Inhibition (%) of white mold” value is 0%. Moreover, the “Inhibition (%) of Botrytis cinerea” value in test [2] worked out at 0%.

As to `O=C(O)CCC(=O)O` [0.010% succinic acid, succinic acid], the “Inhibition (%) of white mold” value in test [1] was found to be 0%. The “Inhibition (%) of Botrytis cinerea” value in test [2] worked out at 0%.

On to `O=C(O)C(O)C(O)C(=O)O` (stereo not shown) [0.75% tartaric acid, tartaric acid], for which the “Infected berries (% of total) Day 2” value in test [3] (day 2) was determined as 31%. The “Infected berries (% of total) Day 3” value in test [3] (day 3) amounted to 58%. In test [3] (day 4), the “Infected berries (% of total) Day 4” value worked out at 86%. In test [3] (day 6), the “Infected berries (% of total) Day 6” value was 92%. Besides, the “Infected berries (% of total) Day 8” value in test [3] (day 8) turned out to be 92%. Besides, the “Infected berries (% of total) Day 10” value in test [3] (day 10) is on record as 92%. In test [3] (day 12), the “Infected berries (% of total) Day 12” value amounted to 92%.

Turning to `O=C(O)CO` [glycolic acid], the “Measurement of fungal growth, Septoria Day 2” value in test [4] (day 2 after inoculum) is on record as 80%. Further, the “Measurement of fungal growth, Septoria Day 3” value in test [4] (day 3 after inoculum) was found to be 90%. The “Inhibition (%) of white mold” value in test [1] came out at 0%. The “Inhibition (%) of Botrytis cinerea” value in test [2] is given as 0%. In addition, the “Measurement of fungal growth, Late blight Day 2” value in test [5] is given as 79%.
